Where no end group is shown, it is not given here.
How the values were obtained:
[1] = system: primary oligodendrocyte cultures (3 DIV); experiment: ATP toxicity assay in oligodendrocytes; format: cell-based, mouse
Experimental: (§1) PAR agonist-induced changes in oligodendrocyte morphology: To determine the effects of recombinant Klk6, Klk1, thrombin, or PAR1-AP on oligodendroglia, 3 DIV PAR1^+/+, PAR1^−/−, and PAR2^−/− oligodendrocytes, PAR1^+/+ OPCs immediately post purification, or Oli-neu cells were grown on cover slips in the presence of agonists for 24 h. For ATP toxicity assays, oligodendrocytes were incubated with ATP (50 μM, Sigma Aldrich) in the presence of Klk6 or Klk1. Following each treatment, oligodendrocyte and OPC cultures were immunolabeled for O4 to visualize the cell body and processes. Oli-neu processes were visualized by staining the actin cytoskeleton with Cy3-conjugated Phalloidin.
(§2) To assess the effects of Klk6 and other PAR1 agonists on oligodendrocyte morphology and process stability, 20× digital micrographs were overlaid with a 780 μm^2 grid and ImageJ software 1.45r (National Institutes of Health) used to record cell number and the number of processes crossing horizontal grid lines (Scarisbrick et al., Brain 125:1283-1296, 2002). Data are expressed as the mean number of O4^+ or Phalloidin^+ processes per DAPI^+ cell (±SEM).
(§3) The extent of oligodendrocyte morphological differentiation was determined by scoring O4^+/DAPI^+ oligodendrocyte morphology as simple (only primary processes, no secondary branching), incomplete (one or more primary process without secondary branching), complete (all primary processes with secondary branching), or membrane (complete secondary branching with membrane sheets) (Huang et al., Nat Neurosci 14:45-53, 2011). The mean number of cells in each morphology class was determined across treatments and expressed as percent of total O4^+/DAPI^+ cells.
(§4) Changes in OPC or oligodendrocyte morphology were quantified from five microscopic fields per cover slip with the mean and SEM calculated across three cover slips per experiment. Each experiment was repeated at least twice using independent cultures. Analysis of oligodendrocyte morphology was performed without knowledge of treatment groups.

[2] = system: PLP and MBP RNA expression; experiment: Myelin gene expression (PLP, MBP RNA) in Oli-neu oligodendrocytes, quantitative RT-PCR; format: cell-based, mouse; conditions: for PLP expression: 24 hours, Klk6 300 nM, thrombin 270 nM, PAR1-AP 100 μM, Klk1 300 nM
Experimental: (§5) Oli-neu oligodendrocytes are derived from mouse primary oligodendrocyte cultures retrovirally transduced to constitutively express the t-neu oncogene (Jung et al., Eur J Neurosci 7:1245-1265, 1995). All morphology, signaling, and myelin gene expression studies using Oli-neu oligodendrocytes were performed in media containing DMEM, 1% N2, 2 mM Glutamax, 1 mM sodium pyruvate, 20 mM HEPES buffer, and 50 μM β-mercaptoethanol (Sigma Aldrich. To evaluate PAR and Klk6 gene expression in Oli-neu (Table 2), cells were differentiated by treatment with 1 mM N^6, 2′-O-dibutyryladenosine 3′, 5′-cyclic monophosphate disodium salt (dbcAMP) for 72 hours prior to harvesting for RNA isolation. All cells were maintained at 37° C. in 95% air and 5% CO2. Cell culture reagents were obtained from Life Technologies (Carlsbad, CA) unless otherwise indicated. All cell culture experiments were performed in triplicate and repeated at least twice.
Expression of oligodendrocyte PARs and Klk6-real-time quantitative PCR: Total RNA was isolated from cultured cells using RNA STAT-60 (Tel-Test, Friendswood, TX). Klk6, PAR1, or PAR2 RNA expression was determined in 0.5 μg of RNA with the iScript one-step RT-PCR kit with SYBR® Green and the iCycler iQ5 system (BioRad, Hercules, CA). Transcript copy number was determined using a standard curve prepared by parallel amplification of cDNA clones diluted to known copy number (Christophi et al., J Neurochem 91:1439-1449, 2004). Amplification of the housekeeping gene glyceraldehyde phosphate 3-dehydrogenase (GAPDH) was used to control for loading. The mean and standard error (SEM) of transcript copy number was determined and data expressed as RNA copy number on a logarithmic scale.
Regulation of oligodendrocyte myelin gene expression by PAR1 agonists: Primary murine oligodendrocytes (3 DIV) or Oli-neu oligodendrocytes were seeded at 3.5×10^5 cells/well in six-well tissue culture plates. Cells were then treated with Klk6 (30-300 nM), Klk1 (300 nM), thrombin (270 nM), or PAR1-AP (100 μM) for 24 hours prior to RNA isolation. Expression of myelin-associated genes, PLP, and MBP was examined by real-time quantitative RT-PCR. Expression levels of target genes were normalized to GAPDH and expressed as percent control.

[3] = system: primary oligodendrocyte cultures (3 DIV); experiment: Oligodendrocyte morphological differentiation scoring (simple, incomplete, complete, membrane), process and cell number; format: cell-based, mouse
Experimental: (§6) Oligodendrocyte Cultures: Purified cortical oligodendrocyte progenitor cells (OPCs) and differentiated oligodendrocytes were isolated from mixed glial cultures derived from postnatal day 1 mice (McCarthy and de Vellis, J Cell Blot 85:890-902, 1980). Glial cultures were grown in media containing DMEM, 2 mM Glutamax, 1 mM sodium pyruvate, 20 mM HEPES, and 10% heat-inactivated fetal calf serum (Atlanta Biologicals, Lawrenceville, GA). OPCs were isolated from 10 days-in-vitro (DIV) mixed glial cultures by overnight shaking and purified by differential adhesion. OPCs were seeded in defined Neurobasal A media containing 1% N2, 50 U/mL penicillin/streptomycin, 2 mM Glutamax, 1 mM sodium pyruvate, 0.45% glucose, and 50 μM β-mercaptoethanol (Sigma Aldrich, USA). OPCs were seeded at 3×10^4/cm^2 onto tissue culture plastic or 12 mm glass cover slips coated with poly-L-lysine (PLL, 10 μg/mL). After 24 h, cultures were 92-98% immunoreactive (IR) for sulfatide (O4) and by 72 hours at least 80% were also MBP-IR.
as §1, §2, §3, §4

Oli-neu oligodendrocytes = experiment: Process retraction in Oli-neu oligodendrocytes (Phalloidin+ processes per cell); format: cell-based, mouse; conditions: 24 hours, PAR1-AP 100 μM, Klk1 300 nM; for number of processes per cell: Klk6 30, 150, 300 nM, thrombin 270 nM
Experimental: as §5, §1, §2

[4] = system: oligodendrocyte progenitor cells (OPCs); experiment: OPC process outgrowth; format: cell-based, mouse; conditions: 24 h; for OPC process extension / outgrowth: Klk6 150 nM, thrombin 135 nM, Klk1 150 nM
Experimental: as §6, §1, §2, §4

Erk1/2 phosphorylation = experiment: Klk6-PAR signaling assay, Erk1/2 phosphorylation by Western blot in Oli-neu; format: cell-based, mouse; conditions: treatment alone; Klk6 10 minutes
Experimental: Klk6-PAR signaling assays: To examine the ability of Klk6 to mediate PAR-dependent signaling in oligodendrocytes, Oli-neu oligodendroglia (3.5×10^5 cells/well in six-well plates) were treated with Klk6 (150 nM) for 10 min, followed by protein harvest. Cell lysates were analyzed for phosphorylated or nonphosphorylated Erk1/2 by Western blot. In experiments to determine the role of PARs in Klk6 signaling, Oli-neu were preincubated with the PAR1 antagonist, SCH79797 dihydrochloride (50 nM, Tocris Biosciences, Minneapolis, MN) for 30 minutes prior to Klk6 application.
Western blot: Oli-neu lysates were obtained using a buffer containing 1% NP40, 0.5% deoxycholate, 10% glycerol, and 20 mM Tris base and separated on SDS-polyacrylamide gels prior to transfer. Membranes were blocked with 5% milk in TBS-T and incubated overnight with primary antibodies including rabbit anti-phospho-Erk1/2 (1:1,000, Cell Signaling Technology, Danvers, MA), followed with a species-appropriate horseradish peroxidase-conjugated secondary antibody (1:20,000 GE Healthcare Unlimited, UK). Signal was detected using Chemiluminescence Supersignal Pico (Pierce, Rockford, IL). Western blots were repeated three times from independent cultures, scanned, and quantified by densitometry (BioRad Quantity One 1-D Analysis Software, BioRad, Hercules, CA). Erk1/2 signal was normalized to its nonphosphorylated form. Equal loading was verified by reprobing blots for […] (Novus Biologicals, Littleton, CO).

spinal cord white matter = experiment: Microinjection of Klk6 or PAR1-AP into spinal cord dorsal column white matter; format: in vivo, mouse
Experimental: In vivo effects of excess Klk6 or PAR1-AP in spinal cord white matter: All mice were administered Buprenorphine preoperatively (Buprenex, 0.03 mg/kg, intraperitoneal (i.p.), Reckitt Benckise, Slough, UK) and every 12 hours for the first 48 hours following surgery. Surgical anesthesia was induced in age-matched male C57BL6/J or PAR12/2 mice using Ketamine (Ketaset, 80 mg/kg, Fort Dodge Animal Health, Fort Dodge, IA) and Xylazine i.p. (Anased, 10 mg/kg, Lloyd Laboratories, Shenendoah, IA). A thoracic (T11-T12) laminectomy was performed and a 30-40 μm glass capillary needle inserted into a 10 μL gas-tight Hamilton Syringe (Hamilton Company, Reno, NV) used to deliver 2 μL of Klk6 (0.01 μg/μL (300 nM)), PAR1-AP (0.01 μg/μL (100 μM)), or vehicle (physiologic saline) alone (n=3 for each treatment group) using a stereotaxic injection system (Stoelting, Wood Dale, IL). Under micromanipulator control (MyNeurolab, Richmond, IL), the needle was inserted 350 μm into the dorsal column, infusion carried out over 5 minutes and the needle left in place for 3 minutes to avoid backflow. All mice received 0.5 mL of sterile saline and Baytril (2.5 mg/kg, Bayer Healthcare, Shawnee Mission, KS) i.p. postoperatively.
Seventy-two hours after microinjection of PAR1 agonists, mice were deeply anesthetized with Nembutal (50 mg/kg, i.p., Lundbeck, Deerfield, IL) and perfused transcardially with 4% PFA. Two millimeter transverse spinal cord segments encompassing the microinjection epicenter as well as 2 mm rostral and caudal were embedded in paraffin. Six micrometer sections were cut and slide mounted serially. Every sixth slide was stained with hematoxylin and eosin (H&E). Adjacent sections were immunostained for oligodendroglia using an antibody specific for CC-1/APC (ab16794, AbCam, Cambridge, MA), myelin using an antibody recognizing MBP (MAB386, Millipore, Bedford, MA), and standard avidin-biotin immunoperoxidase techniques (Scarisbrick et al., J Comp Neurol 431:347-361, 2001; and Scarisbrick et al. 2012b, supra). Stained sections were cover slipped with Permount (Fisher Scientific, Pittsburgh, PA) containing 2 mg/mL bisbenzamide to visualize nuclei (Sigma Aldrich).
Measurements of white matter lesion area were based on signs of pathology (vacuolation, tissue destruction, hemorrhage) in 20× digital images of H&E stained sections. The largest lesion area in each animal was used to determine mean maximal lesion area and expressed in μm^2. The integrity of MBP immunoreactivity was assessed in sections for 2,000 μm rostrocaudal to the microinjection site. The number of dorsal column CC-1^+/DAPI^+ cells was quantified in sections across […] of spinal cord extending rostrocaudal to the epicenter. The mean area of dorsal column white matter in the intact spinal cord was approximately […]. To put the number of CC-1^+ oligodendrocytes into context, the mean number CC-1V cells per mm^2 was evaluated as the mean number per […]. Sections stained for CC-1 were also stained for GFAP (Sigma Aldrich), allowing for the exclusion of CC-1^+ astrocytes; however, no examples of double labeled cells were observed.

[5] = Klk6 150 nM, Klk1 300 nM, 24 hours

Nc1ncnc2c1ncn2[C@@H]1O[C@H](COP(=O)(O)OP(=O)(O)OP(=O)(O)O)[C@@H](O)[C@H]1O [ATP, reference compound]
number of processes per oligodendrocyte ([1]; ATP 50 μM alone): two-fold reduction
cells with complete morphology ([1]; ATP 50 μM alone, 24 h): significant decrease
cells with membrane morphology ([1]; ATP 50 μM alone, 24 h): small, but significant increase
percentage of cells with simple morphology ([1]; ATP 50 μM alone, 24 h): significant increase
oligodendrocyte number relative to control ([1]; ATP alone): significant decrease

N#CC(=C(/N)Sc1ccccc1N)/C(C#N)=C(\N)Sc1ccccc1N [U0126, reference compound]
PLP RNA expression ([2]; U0126 alone): No significant change

Klk1: Recombinant murine Klk1 expressed using a baculovirus system
oligodendrocyte morphology ([3]; 300 nM): did not significantly impact
oligodendrocyte number [3, 5]: did not significantly impact
processes per cell [3, 5]: did not significantly impact
ATP-induced oligodendrocyte loss ([1]; co-application with ATP): did not increase
number of processes per oligodendrocyte ([1]; co-application with ATP 50 μM): did not impact
oligodendrocytes with membrane morphology ([1]; co-application with ATP 50 μM): significant decrease
Oli-neu cell number (Oli-neu oligodendrocytes; Klk6 30 nM): no effect
number of processes per cell (Oli-neu oligodendrocytes): no effect
number of OPCs [4]: no effect
OPC process extension / outgrowth [4]: comparable to controls
Erk1/2 phosphorylation (Erk1/2 phosphorylation): No significant changes

TFLLR-amide (TFLLR-NH2) [PAR1-AP, reference compound]
number of processes per cell (Oli-neu oligodendrocytes): significant decrease
PLP expression [2]: significantly decreased
maximal lesion area relative to saline alone (spinal cord white matter; PAR1+/+ mice): enhanced
reduction of CC-1+ cells in dorsal column white matter (spinal cord white matter; PAR1+/+ mice): ~15%
loss of MBP-immunoreactivity relative to saline alone (spinal cord white matter; PAR1+/+ mice, 72 hours): ~45%
rostrocaudal white matter pathology (spinal cord white matter; PAR1+/+ mice, 0.02 μg, 72 hours): 1,026.0±105.3 μm
white matter pathology (spinal cord white matter; PAR1-/- mice): absent

thrombin
number of processes per cell (Oli-neu oligodendrocytes): significant decrease
number of OPCs [4]: no effect
OPC process extension / outgrowth [4]: inhibited
PLP expression [2]: significantly decreased
